In one series the target is H. pylori Csd6 (Helicobacter pylori, UniProt O25255). The series can be described thus: SPR kinetics and affinity on immobilized Csd6. The class given is binding, Helicobacter pylori 26695. The settings on record: for kon: read-out: association rate constant ka; for koff: read-out: dissociation rate constant kd. Here is the method: The kinetics and affinity of Csd6 with the synthetic muramyl tetrapeptide and muramyl tripeptide (β-methyl N-acetylmuramic acid-L-Ala^1-γ-D-Glu^2-mDAP^3) as a reaction product were assessed using a Reichert SR7500 surface plasmon resonance (SPR) dual channel instrument (Reichert, Depew, NY). Purified Csd6 in 20 mM sodium acetate, pH 5.5, was immobilized using the standard amino coupling at 20 μl min^−1 on a carboxymethyl dextran hydrogel surface sensor chip (Reichert, Depew, NY) until saturation was achieved. The running buffer B used in all SPR experiments was 20 mM HEPES, pH 7.9, and 150 mM sodium chloride. SPR experiments were performed at 25 °C. The muramyl tetrapeptide or muramyl tripeptide at concentrations of 15.6, 31.3, 62.5, 125, 250, and 500 μM was injected over the Csd6-chip at 30 μl min^−1 for 5 min for association analyses. Subsequently, the running buffer was flowed over the chip for an additional 6 min (30 μl min^−1) for dissociation analyses. Regeneration of the chip was carried out using 20 mM sodium hydroxide. Binding was detected as a change in the refractive index at the surface of the chip as measured by the response unit. A reference flow cell was used to record the response by bovine serum albumin (BSA) as a […], and the response by BSA was subtracted from each sample. SPR data were fit using the Scrubber2 software.
FIGURE 5.

In series [1] the test system is Csd6. Nature of the series: Crystal structure of D-Ala-bound Csd6. The class given is binding, Helicobacter pylori 26695. Particulars: native crystal preincubated 2 min with 96 mM D-Ala; 2.04 Å, PDB 4Y4V. Here is the method:
Native crystals of ligand-free Csd6 were grown at 23 °C by the sitting-drop vapor diffusion method. Sitting drops were prepared by mixing 0.5 μl of the protein solution, 0.1 μl of a 10-fold diluted microseed crystal solution, and 0.4 μl of the reservoir solution (1.5% (v/v) Tacsimate, pH 7.0, 22% (w/v) PEG 3,350, and 100 mM sodium-HEPES, pH 7.5). The microseed crystals were originally obtained with ligand-free Csd6 using the above reservoir solution. The crystals grew to approximate dimensions of 0.2 × 0.1 × 0.05 mm within a few days. X-ray diffraction data for the ligand-free Csd6 (Csd6-unbound) were collected at 100 K using a cryoprotectant solution containing 20% (v/v) glycerol added to the reservoir solution (Table 1). X-ray diffraction data for the D-Ala-bound Csd6 (Csd6-Ala) were collected at 100 K after the native crystal was preincubated for 2 min in a cryoprotectant solution containing both 20% (v/v) glycerol and 96 mM D-Ala, which were added to the reservoir solution (Table 1). The structures of both Csd6-unbound and Csd6-Ala were determined by molecular replacement with the program MolRep ([47]) using the refined model of EMTS-derivatized Csd6. Stereochemistry of the refined models was evaluated using MolProbity ([48]).

Series [2] relates to Csd6. The class given is biochemical, Helicobacter pylori 26695. Particulars: analyte 5 mM, Csd6 5 μM, 2 h, 37 °C; 20 mM sodium phosphate, pH 6.0, 150 mM sodium chloride; MALDI-QIT-TOF MS.
Another series concerns LdtMt2. Particulars: positive control for L,D-TPase activity; recombinant LdtMt2 (Ala-55–Ala-408); MALDI-QIT-TOF MS.
Series [3] deals with the molecule itself. The series can be described thus: AUC; equilibrium sedimentation; 20 mM Tris-HCl pH 7.9, 150 mM NaCl, 1.5 mM TCEP, 20 °C; 16,000 and 20,000 rpm; Csd6 monomer concentrations 2.74, 3.65 and 4.56 μM.
The format of series [4] is biochemical. The settings on record: muramyl tetrapeptide.
For series [5] the following is noted: recombinant hexahistidine-tagged Csd6; cited from earlier work. An excerpt: In many bacteria, including H. pylori, the peptidoglycan layer is remodeled by a number of cell-wall hydrolases as well as synthetases for the peptidoglycan maturation, regulation of cell-wall growth, cell division, peptidoglycan turnover and recycling, cell lysis, and the release of peptidoglycan fragments for host-pathogen interactions ([18]). In H. pylori, an amidase AmiA ([19]), peptidases Csd1–4, potential regulators Csd5 and CcmA ([20][–][22]), and another peptidase Csd6 ([23]) are required to tailor the peptidoglycan layer to generate the helical cell shape. We have recently reported th ...

Where [6] appears, read: SPR, Reichert SR7500, Csd6 immobilized by amine coupling, 20 mM HEPES, pH 7.9, 150 mM sodium chloride, 25 °C, analyte 15.6-500 μM, Scrubber2 fit, read-out: KD.
[7] abbreviates: muramyl tripeptide vs muramyl tetrapeptide, SPR, Csd6.

Where two headings read alike, the source gives them in different places. [ ]: non-standard residue; d: D form. mDAP = meso-diaminopimelic acid

`N[C@H](CCC[C@H](N)C(=O)O)C(=O)O` [mDAP, meso-2,6-diaminopimelate]: on H. pylori Csd6, binding was characterised by a dissociation constant (Kd) of 94 µM, the kon is 1.49 M⁻¹ s⁻¹ and the koff is 0.00014 s⁻¹.

Consider `C[C@@H](N)C(=O)O` [D-Ala], for which, on H. pylori Csd6, the equilibrium dissociation constant (Kd) amounted to 224 µM, the kon was 1.05 M⁻¹ s⁻¹ and the koff turned out to be 0.00023 s⁻¹. For the same molecule, the “binding in crystal structure (in words)” value with Csd6 [1] was “two D-Ala molecules are well ensconced within the active site of monomer A with clear electron density”.

As to “β-methyl N-acetylmuramic acid-L-Ala^1-γ-D-Glu^2-mDAP^3 [muramyl tripeptide]”, on H. pylori Csd6 (setting [6]), the Kd is 510 µM. Further, at H. pylori Csd6 (setting [7]), the “ka relative to that for the muramyl tetrapeptide” value is “roughly 3 ×” and the “kd relative to that for the muramyl tetrapeptide” value is given as ~50 ×.

As for “β-methyl N-acetylmuramic acid-L-Ala^1-γ-D-Glu^2-mDAP^3-D-Ala^4 ({β‑methyl N‑acetylmuramic acid}-AE[mDAP][dA]-OH; not fully specified (residue 2)) [muramyl tetrapeptide]”, the Kd with H. pylori Csd6 (setting [6]) is 27 µM.

In the case of “β-methyl N-acetylmuramic acid-L-Ala^1-γ-D-Glu^2-mDAP^3-D-Ala^4 [muramyl tetrapeptide]”, the “reaction product upon incubation with Csd6” value in the series with Csd6 [2] is listed as “the muramyl tripeptide was detected as the sole reaction product of trimming without any dimeric cross-linked species”. Besides, in the series with LdtMt2, the “reaction product upon incubation with LdtMt2” value is reported as “not only the muramyl tripeptide (Tri in Fig. 1C) but also the dimeric cross-linked species (Tetra-Tri in Fig. 1C) were detected as the reaction products”.

For “β-methyl N-acetylmuramic acid-L-Ala^1-γ-D-Glu^2-mDAP^3-D-Ala^4-D-Ala^5 [muramyl pentapeptide]”, the “reaction product upon incubation with Csd6” value with Csd6 [2] is “no reaction product could be detected”.

B1: Helicobacter pylori Csd6 (HP0518), residues Val-13–Lys-330 (enzyme, Helicobacter pylori 26695, UniProt O25255 13-330, looked up)
chain: VGLNASDRLLEIMRLYQKQGLEMVGQKLDSYLADKSFWAEELQNKDTDFGYYQNKQFLFVANKSKPSLEFYEIENNMLKKINSSKALVGSKKGDKTLEGDLATPIGVYRITQKLERLDQYYGVLAFVTNYPNLYDTLKKRTGHGIWVHGMPLNGDRNELNTKGCIAIENPLLSSYDKVLKGEKAFLITYEDKFFPSTKEELSMILSSLFQWKEAWARGDFERYMRFYNPNFTRYDGMKFNAFKEYKKRVFAKNEKKNIAFSSINVIPYPNSQNKRLFYVVFDQDYKAYQHNKLSYSSNSQKELYIEIENNQVSIIMEK
notes: Csd6 (HP0518), L,D-carboxypeptidase of Helicobacter pylori strain 26695, residues Val-13–Lys-330 of the gene product; In the Csd6-Ala crystal, Cys-176 of monomer A is oxidised to sulfenic acid; also called Csd6(13–330); recombinant Csd6; source: E. coli Rosetta2(DE3)pLysS, purified (HiTrap Chelating HP, Superdex 200)
For the molecule B1, the “stoichiometry N” value in series [3] was found to be 2.

B2: Csd6: recombinant H. pylori 26695 Csd6 protein, residues Val-13–Lys-330, with N-terminal His6-containing tag (protein)
chain: B1 chain
modifications: left off: His6-containing tag, N-terminal, state not stated
notes: recombinant H. pylori 26695 Csd6 protein, residues Val-13–Lys-330, with N-terminal His6-containing tag
Take B2: the “L,D-carboxypeptidation activity upon EDTA treatment (in words)” value in series [4] is reported as “no change upon EDTA treatment”. The “conversion of monomeric tetrapeptides” value in series [5] is “complete conversion of the monomeric tetrapeptides to tripeptides”.

The values are drawn from publication PMC4599014, “The Cell Shape-determining Csd6 Protein from Helicobacter pylori Constitutes a New Family of L,D-Carboxypeptidase*” (The Journal of Biological Chemistry, 2015).
